Data taken from patent US11123323B2, “Monoterpenes for treating respiratory disorders, in particular bronchopulmonary disorders” (Maria Clemetine Martin Klosterfrau Vertriebsqesellschaft MBH, priority 2008, dated 2021).

Test system: patients with persistent bronchial asthma (GINA III)
Experiment: Clinical add-on therapy with oral 1,8-cineol, persistent bronchial asthma GINA III, 12 patients
Format: in vivo, human
Source text: Even after a one-week therapy at the dose mentioned above, in 9 of the 12 subjects a slight to moderate improvement of lung function was achieved. After continuing therapy for a further twelve weeks, the persistent bronchial asthma had stabilized to such an extent that in 9 of the 12 patients the inhalative glucocorticoid required could be reduced by up to 30%.

## CC12CCC(CC1)C(C)(C)O2 [1,8-cineol, 1,3,3-trimethyl-2-oxabicyclo-[2.2.2]-octane]
4×200 mg/day orally
  tolerability: tolerated well, without any side-effects
4×200 mg/day orally, after one week, add-on to beclometasone, salmeterol, theophyllin
  subjects with a slight to moderate improvement of lung function: 9 of the 12
After a further twelve weeks
  patients in whom the inhalative glucocorticoid required could be reduced: 9 of the 12
  reduction of the betamimetics required: up to 25%
  reduction of the inhalative glucocorticoid required: up to 30%
Of 12 patients treated
  patients in whom the betamimetics required could be reduced: 4
